Reference: patent EP1847550A2, “Peptides effective in the treatment of tumors and other conditions requiring the removal or destruction of cells” (NYMOX CORPORATION, priority 2001, dated 2007)
Ends that are not written are not given here.

Tests used:
Rat prostate = test: Intraprostatic infusion in rats, histology of the prostate gland after 72 hours; assay type: in vivo; conditions: 300 µl of 1 mg/mL in PBS pH 7.4 (1.0 mg/kg), sacrificed after 72 hours, H & E histology
Protocol: Four rats were anesthetized with ether and given NTP peptide #7 by intraprostatic infusion. The injections consisted of 300 µl of NTP peptide #7 1 mg/mL in PBS pH 7.4. (1.0 mg/kg). Controls received injections of PBS alone or no injection. Rats were painlessly sacrificed after 72 hours. Prostate glands were dissected, fixed in 10% buffered formalin for 24 hours, embedded in paraffin, sectioned, and stained with H & E. For each animal the entire prostate gland was embedded and sectioned. All stained sections were examined histologically.
Normal rats were injected in the prostate as in the above Example 2, except they were injected with NTP peptide #17. Rats were painlessly sacrificed after 72 hours and their prostate glands were examined as in Example 2.

[1] = system: muscle tissue, subcutaneous connective tissue, and dermis; test: Injection into skin, subcutaneous tissue and extremity skeletal muscle of normal rats, histopathology of injection foci at 24 hours; assay type: in vivo
Excerpt: The individual foci of infiltration were excised, fixed in 10% formalin, embedded in paraffin, and stained and examined by standard histopathological methods.
The controls received saline alone.
Tissues were excised, fixed in 10% formalin, embedded in paraffin, and stained and examined by standard histopathological methods.

LSLPSSWDYG [NTP peptide #7, AD7c-NTP p335-343]
effect on tissue at sites of injection (prostate) (Rat prostate): necrosis of tissue at the injection sites with loss of glandular epithelium, flattening and atrophy
effect on tissue at sites of injection ([1]; injected in skin, subcutaneously and in extremity skeletal muscle, in saline, at 0.1-1 mg/mL, sacrificed at 24 hours): produced necrosis of tissue at the injection sites
spread of necrosis beyond the site of injection ([1]; skin, subcutaneous and skeletal muscle injection, 24 hours): did not appear to spread far beyond the site of injection
